Results as given in patent US20120308590A1, “IMP-3 OLIGOPEPTIDES AND VACCINES INCLUDING THE SAME” (OncoTherapy Science, Inc., priority 2009, published 2012).
Residues, ends and D or L forms follow the SMILES beside them.

Legend:
Assay type in all cases: cell-based, human
[1] = system: T2 cells pulsed with cognate peptides; experiment: 51Cr release assay of peptide-induced CTLs against peptide-pulsed T2 cells
Description: (§1) The DCs were pulsed with 20 micro-g/mL of the candidate peptides in the presence of 4 micro-g/mL beta2-microglobulin (Sigma-Aldrich, St. Louis, Mo., USA) for 2 hours at 37 degrees C. in AIM-V (Invitrogen Japan, Tokyo, Japan) containing 2% heat-inactivated autologous plasma. The cells were then irradiated (40 Gy) and incubated with the CD8^+ T cells. […] After 2 days, these cultures were supplemented with human recombinant IL-2 (PeproTech, Rocky Hill, N.J., USA) to a final concentration of 20 IU/mL. Two additional weekly stimulations with peptide-loaded autologous DCs, using the same procedure, were carried out on days 7 and 14. Six days after the last stimulation, the antigen-specific responses of the induced CTLs were investigated by IFN-gamma ELISPOT assay and ^51Cr release assay. […] For ^51Cr release assay, CTLs were co-cultured with peptide-pulsed T2 cells or cancer cells as a target cells (5×10^3/well) at the indicated effector/target ratio and a standard ^51Cr release assay was done as described previously (Komori H et al., Clin Cancer Res. 2006 May 1; 12 (9):2689-97).

A549 (IMP-3+, HLA-A2-) = experiment: 51Cr release assay of peptide-induced CTLs against cancer cell line; details: for cytotoxicity: CTLs from lung cancer patient 14 (SEQ ID NOs: 3 and 5) and patient 4 (SEQ ID NO: 6) (FIG. 5B)
Description: as §1, with “The expression of IMP-3 was determined by reverse transcription-polymerase chain reaction analysis. […] The DCs” for “The DCs”

MCF7 (IMP-3-, HLA-A2+) = experiment: as above
Description: as §1, with “The expression of IMP-3 was determined by reverse transcription-polymerase chain reaction analysis. […] The DCs” for “The DCs”

PANC-1 (IMP-3+, HLA-A2+) = experiment: as above
Description: as §1, with “The expression of IMP-3 was determined by reverse transcription-polymerase chain reaction analysis. […] The DCs” for “The DCs”

SKHep1 = experiment: as above; details: CTL lines generated from the healthy donors (FIG. 5D)
Description: as §1, with “The expression of IMP-3 was determined by reverse transcription-polymerase chain reaction analysis. […] The DCs” for “The DCs”

SW620 = experiment: as above; details: CTL lines generated from the healthy donors (FIG. 5D)
Description: as §1, with “The expression of IMP-3 was determined by reverse transcription-polymerase chain reaction analysis. […] The DCs” for “The DCs”

[2] = system: MCF7/IMP-3 (MCF7 cells transfected with IMP-3 gene); experiment: 51Cr release assay of peptide-induced CTLs against transfected cell line; details: CTL lines generated from the healthy donors (FIG. 5C)
Description: as §1, with “The expression of IMP-3 was determined by reverse transcription-polymerase chain reaction analysis. […] The DCs” for “The DCs”

[3] = system: CD107a on the cell surface of CTLs; experiment: CD107a exposure on the cell surface of CTLs (FACS); details: CTLs specific to IMP-3-552-560 stimulated with the named peptide at 1 microgram/ml for 5 hours; mouse IgG staining 0.7%
Description: The exposure of CD107a on the cell surface of the CTLs after antigen stimulation was detected by anti-CD107a antibody. […] These CTLs were cultured for 5 hours at 37 degrees C. and were subsequently stained with PE conjugated anti-human CD8 mAb. All peptides were used at a final concentration of 1 microgram/ml. Events shown are gated for CD8^+ T cells.

[4] = CTLs induced from PBMCs of healthy donors, not to T2 pulsed with irrelevant HIV-A2 peptide (FIG. 3B)
[5] = CTL lines generated from the healthy donors (FIG. 5D)
[6] = CTLs induced from PBMCs of healthy donor 2 (FIG. 5A)
[7] = CTL lines generated from the healthy donors (FIG. 5C)
[8] = CTLs from lung cancer patient 14 (SEQ ID NOs: 3 and 5) and patient 4 (SEQ ID NO: 6) (FIG. 5B)

Row | Molecule | cytotoxic activity [1, 4] | cytotoxic activity (A549 (IMP-3+, HLA-A2-); [5]) | cytotoxic activity (A549 (IMP-3+, HLA-A2-); [6]) | cytotoxicity (MCF7 (IMP-3-, HLA-A2+); [7]) | cytotoxic activity (MCF7 (IMP-3-, HLA-A2+); [5]) | cytotoxic activity (MCF7 (IMP-3-, HLA-A2+); [6]) | cytotoxic activity (PANC-1 (IMP-3+, HLA-A2+); [6]) | cytotoxic activity (SKHep1) | cytotoxic activity (SW620) | cytotoxicity [2] | cytotoxic activity ([1]; CTLs from PBMCs of lung cancer patient 4, no activity to T2 pulsed with HIV peptide (FIG. 4B)) | cytotoxicity (A549 (IMP-3+, HLA-A2-)) | cytotoxicity (MCF7 (IMP-3-, HLA-A2+); [8]) | cytotoxic activity (PANC-1 (IMP-3+, HLA-A2+); [8]) | cytotoxic activity ([1]; CTLs from PBMCs of lung cancer patient 3, no activity to T2 pulsed with HIV peptide (FIG. 4B)) | CD8+/CD107a+ cells of all CD8+ cells [3]
1 | CC(C)C[C@H](NC(=O)[C@H](CC(C)C)NC(=O)[C@@H](N)CCCNC(=N)N)C(=O)N[C@H](C(=O)N1CCC[C@H]1C(=O)N[C@H](C(=O)N[C@@H](CCC(N)=O)C(=O)N[C@@H](Cc1ccccc1)C(=O)N[C@H](C(=O)O)C(C)C)[C@@H](C)O)C(C)C [SEQ ID NO: 1, RLLVPTQFV] (H-RLLVPTQFV-OH) | exhibited cytotoxic activity | not against | no cytotoxic activity | not against | not against | no cytotoxic activity | showed cytotoxic activity | exhibited cytotoxic activity | exhibited cytotoxic activity | exhibited cytotoxicity |  |  |  |  |  | 
2 | CC[C@H](C)[C@H](NC(=O)[C@H](CCC(=O)O)NC(=O)[C@H](CCC(N)=O)NC(=O)[C@@H](NC(=O)[C@@H](N)CCCCN)[C@@H](C)CC)C(=O)N[C@@H](CC(C)C)C(=O)N[C@H](C(=O)N[C@@H](CCC(N)=O)C(=O)N[C@H](C(=O)O)C(C)C)[C@@H](C)O [SEQ ID NO: 3, KIQEILTQV] (H-KIQEILTQV-OH) |  |  | no cytotoxic activity |  |  | no cytotoxic activity | showed cytotoxic activity |  |  |  | showed cytotoxic activity | without showing cytotoxicity | without showing cytotoxicity | showed cytotoxic activity |  | 
3 | CC[C@H](C)[C@H](NC(=O)[C@@H](N)CCCCN)C(=O)N1CCC[C@H]1C(=O)N[C@H](C(=O)N[C@@H](CO)C(=O)NCC(=O)N1CCC[C@H]1C(=O)N[C@@H](Cc1ccccc1)C(=O)N[C@@H](CC(C)C)C(=O)O)C(C)C [SEQ ID NO: 5, KIPVSGPFL] (H-KIPVSGPFL-OH) |  |  | no cytotoxic activity |  |  | no cytotoxic activity | showed cytotoxic activity |  |  |  |  | without showing cytotoxicity | without showing cytotoxicity | showed cytotoxic activity | showed cytotoxic activity | 
4 | CC(C)C[C@H](NC(=O)[C@@H](N)CC(N)=O)C(=O)N[C@@H](CO)C(=O)N[C@@H](CO)C(=O)N[C@@H](C)C(=O)N[C@@H](CCC(=O)O)C(=O)N[C@H](C(=O)N[C@H](C(=O)N[C@H](C(=O)O)C(C)C)C(C)C)C(C)C [SEQ ID NO: 6, NLSSAEVVV] (H-NLSSAEVVV-OH) | exhibited cytotoxic activity | not against | no cytotoxic activity | not against | not against | no cytotoxic activity | showed cytotoxic activity | exhibited cytotoxic activity | exhibited cytotoxic activity | exhibited cytotoxicity |  | without showing cytotoxicity | without showing cytotoxicity | showed cytotoxic activity |  | 
5 | SLYNTYATL [HIV peptide] |  |  |  |  |  |  |  |  |  |  |  |  |  |  |  | 1.5%
